Laboratory results from patent US20260256792A1, “TREATMENT OF CHRONIC SPONTANEOUS URTICARIA BY ADMINISTERING (R)-2-[3-[4-AMINO-3-(2-FLUORO-4-PHENOXY-PHENYL)PYRAZOLO[3,4-D]PYRIMIDIN-1-YL]PIPERIDINE-1-CARBONYL]-4-METHYL-4-[4-(OXETAN-3-YL)PIPERAZIN-1-YL]PENT-2-ENENITRILE” (priority 2023, published 2026).

Tested on: moderate-to-severe chronic spontaneous urticaria (CSU)
Assay: Phase 2 CSU study: hives severity score over 7 days (HSS7)
Format: in vivo, human
Set-up: key to HSS7 Change from baseline, Median / HSS7, Median / HSS7, Max / HSS7 Change from baseline, Q1 / HSS7 Change from baseline, Q3 / HSS7 Change from baseline, Max: 7-day sum of daily hive scores, each 0 = none to 3 = >50 hives
Source text: The study comprises a 12 week, randomized, double-blind, placebo-controlled, multi-center, dose-ranging efficacy and safety phase, followed by a 40 week open label extension (OLE) phase (see FIG. 1).
The study consists of three phases and an optional OLE phase.
The UAS is a validated PRO measure. The daily UAS is the sum of the daily Hive Severity Score (HSS, ranging from 0=None to 3=more than 50 hives) and the daily Itch Severity Score (ISS, ranging from 0=None to 3=intense), the 2 key urticaria signs and symptoms which are wheals and itch. The daily UAS scores range from 0 to 6 point/day. Daily UAS scores are summed over 7-day period to create the UAS7, ranging from 0 to 42, and are composed of the HSS7 and ISS7 components. […] Patients were to complete the UAS using the e-diary. The e-diary was to be used once daily on the same time of each day recording of participant's answers to the urticaria activity score over 7 days (UAS7) questionnaire. For participants who entered the OLE phase, their answers to the UAS7 questionnaire were also to be collected from Week 20 to Week24 and from Week 48 to Week 52.
The following secondary endpoints were to be analyzed using the same approach as for the primary endpoint: • Change from baseline in UAS7 at Week 4 • Change from baseline in UAS7 at Week 12 (for US and US reference countries) • Change from baseline in ISS7 at Week 12 (except US and US reference countries) • Change from baseline in HSS7 at Week 12

[1] = 400 mg BID, Week 11, ITT Population
[2] = 400 mg BID, Week 12, ITT population
[3] = 400 mg BID, Week 12, Omalizumab-Naïve Population
[4] = 400 mg QPM, Omalizumab-Naïve Population, last block under Week 12, double-blind period, WOCF imputation
[5] = 400 mg QPM, Week 1, ITT Population
[6] = 400 mg QPM, Week 1, Omalizumab-Naïve Population
[7] = 400 mg QPM, Week 2, ITT Population
[8] = 400 mg QPM, Week 2, Omalizumab-Naïve Population
[9] = 400 mg QPM, Week 3, ITT Population
[10] = 400 mg QPM, Week 3, Omalizumab-Naïve Population
[11] = 400 mg QPM, Week 4, ITT population
[12] = 400 mg QPM, Week 4, Omalizumab-Naïve Population
[13] = 400 mg QPM, Week 5, ITT Population
[14] = 400 mg QPM, Week 5, Omalizumab-Naïve Population
[15] = 400 mg QPM, Week 6, ITT Population
[16] = 400 mg QPM, Week 6, Omalizumab-Naïve Population
[17] = 400 mg QPM, Week 7, ITT Population
[18] = 400 mg QPM, Week 7, Omalizumab-Naïve Population
[19] = 400 mg QPM, Week 8, ITT population
[20] = 400 mg QPM, Week 8, Omalizumab-Naïve Population
[21] = 400 mg QPM, Week 9, ITT Population

In the case of `CC(C)(C=C(C#N)C(=O)N1CCC[C@@H](n2nc(-c3ccc(Oc4ccccc4)cc3F)c3c(N)ncnc32)C1)N1CCN(C2COC2)CC1` [rilzabrutinib, (R)-2-[3-[4-amino-3-(2-fluoro-4-phenoxy-phenyl)pyrazolo[3,4-d]pyrimidin-1-yl]piperidine-1-carbonyl]-4-methyl-4-[4-(oxetan-3-yl)piperazin-1-yl]pent-2-enenitrile], the “HSS7 % Change from baseline LS Mean (SE)” value [1] is reported as −49.14 (7.06) %, the “HSS7 Change difference for rilzabrutinib vs.placebo LS Mean (95% CI)” value (from here on “HSS7 Change difference … (95% CI)”) [1] is reported as −2.46 (−5.05, 0.13) and the “HSS7 Change from baseline LS Mean (SE)” value [1] is reported as −7.01 (0.99). For the same compound, the “HSS7 Postbaseline Mean (SD)” value [1] was 6.79 (7.06), the “HSS7 Postbaseline Mean (SD)” value (400 mg BID, Week 11, Omalizumab-Naïve Population) was 7.13 (7.07) and the “HSS7 Postbaseline Mean (SD)” value (400 mg BID, Week 11, Omalizumab-Naïve Population with Outlier Removed from Analysis) was 7.13 (7.07). The “HSS7 % Change difference for rilzabrutinib vs.placebo LS Mean (95% CI)” value (“HSS7 % Change difference … (95% CI)” below) [2] was −19.13 %, the “HSS7 % Change from baseline LS Mean (SE)” value [2] was −46.86 (7.34) % and the “HSS7 Change difference … (95% CI)” value [2] was −1.89 (−4.58, 0.80). For the same compound, the “HSS7 Change from baseline LS Mean (SE)” value [2] was −6.78 (1.02), the “HSS7 Postbaseline Mean (SD)” value [2] was 7.08 (7.32) and the “HSS7 Change difference … (95% CI)” value [3] was −2.12 (−4.97, 0.73). For the same compound, the “HSS7 Change from baseline LS Mean (SE)” value [3] was −6.52 (1.07), the “HSS7 Postbaseline Mean (SD)” value [3] was 7.52 (7.21) and the “HSS7 Postbaseline Mean (SD)” value (400 mg BID, Week 12, Omalizumab-Naïve Population with Outlier Removed from Analysis) was 7.52 (7.21). For the same compound, the “HSS7, Max” value [4] was 21.0, the “HSS7, Min” value [4] was 0.0 and the “HSS7 Change from baseline, Max” value [4] was 1.5. For the same compound, the “HSS7 Change from baseline, Mean (SD)” value [4] was −9.87 (8.34), the “HSS7 Change from baseline, Median” value [4] was −12.00 and the “HSS7 Change from baseline, Min” value [4] was −19.6. The “HSS7 Change from baseline, Q1” value [4] was −18.00, the “HSS7 Change from baseline, Q3” value [4] was 0.00 and the “HSS7 Percent change from baseline, Max” value [4] was 9.4%. The “HSS7 Percent change from baseline, Mean (SD)” value [4] was −64.85 (48.75) percent, the “HSS7 Percent change from baseline, Median” value [4] was −93.33% and the “HSS7 Percent change from baseline, Q1” value [4] was −100.00%. The “HSS7 Percent change from baseline, Q3” value [4] was 0.00%, the “HSS7 % Change difference … (95% CI)” value [5] was −16.53 % and the “HSS7 % Change from baseline LS Mean (SE)” value [5] was −25.22 (5.61) %. The “HSS7 Change difference … (95% CI)” value [5] was −2.14 (−4.59, 0.31), the “HSS7 Change from baseline LS Mean (SE)” value [5] was −3.98 (0.76) and the “HSS7 Postbaseline Mean (SD)” value [5] was 10.76 (4.83). For the same compound, the “HSS7 % Change difference … (95% CI)” value [6] was −17.05 %, the “HSS7 % Change from baseline LS Mean (SE)” value [6] was −24.49 (5.76) % and the “HSS7 Change difference … (95% CI)” value [6] was −2.16 (−4.69, 0.37). The “HSS7 Change from baseline LS Mean (SE)” value [6] was −3.79 (0.77), the “HSS7 Postbaseline Mean (SD)” value [6] was 10.73 (4.90) and the “HSS7 Postbaseline Mean (SD)” value (400 mg QPM, Week 1, Omalizumab-Naïve Population with Outlier Removed from Analysis) was 10.73 (4.90). For the same compound, the “HSS7 % Change difference … (95% CI)” value [7] was −7.67 (−23.03, 7.68) %, the “HSS7 % Change from baseline LS Mean (SE)” value [7] was −24.23 (5.75) % and the “HSS7 Change difference … (95% CI)” value [7] was −0.95 (−3.07, 1.17). For the same compound, the “HSS7 Change from baseline LS Mean (SE)” value [7] was −3.87 (0.80), the “HSS7 Postbaseline Mean (SD)” value [7] was 10.96 (4.91) and the “HSS7 % Change difference … (95% CI)” value [8] was −8.35 (−24.24, 7.54) %. For the same compound, the “HSS7 % Change from baseline LS Mean (SE)” value [8] was −23.62 (5.84) %, the “HSS7 Postbaseline Mean (SD)” value [8] was 10.90 (4.97) and the “HSS7 Postbaseline Mean (SD)” value (400 mg QPM, Week 2, Omalizumab-Naïve Population with Outlier Removed from Analysis) was 10.90 (4.97). The “HSS7 % Change difference … (95% CI)” value [9] was −9.55 (−25.43, 6.33) %, the “HSS7 % Change from baseline LS Mean (SE)” value [9] was −28.70 (5.96) % and the “HSS7 Change difference … (95% CI)” value [9] was −0.94 (−3.15, 1.28). For the same compound, the “HSS7 Change from baseline LS Mean (SE)” value [9] was −4.44 (0.83), the “HSS7 Postbaseline Mean (SD)” value [9] was 10.40 (4.90) and the “HSS7 % Change difference … (95% CI)” value [10] was −10.40 %. For the same compound, the “HSS7 % Change from baseline LS Mean (SE)” value [10] was −28.10 (6.12) %, the “HSS7 Postbaseline Mean (SD)” value [10] was 10.41 (4.97) and the “HSS7 Postbaseline Mean (SD)” value (400 mg QPM, Week 3, Omalizumab-Naïve Population with Outlier Removed from Analysis) was 10.41 (4.97). The “HSS7 % Change difference … (95% CI)” value [11] was −7.88 (−24.05, 8.29) %, the “HSS7 % Change from baseline LS Mean (SE)” value [11] was −26.58 (6.02) % and the “HSS7 Change difference … (95% CI)” value [11] was −0.78 (−3.03, 1.46). The “HSS7 Change from baseline LS Mean (SE)” value [11] was −4.23 (0.84), the “HSS7 % Change difference … (95% CI)” value [12] was −10.20 % and the “HSS7 % Change from baseline LS Mean (SE)” value [12] was −26.07 (6.19) %. The “HSS7 % Change difference … (95% CI)” value [13] was −2.80 %, the “HSS7 % Change from baseline LS Mean (SE)” value [13] was −31.95 (5.91) % and the “HSS7 Change difference … (95% CI)” value [13] was −0.33 (−2.64, 1.97). For the same compound, the “HSS7 Change from baseline LS Mean (SE)” value [13] was −4.97 (0.86), the “HSS7 Postbaseline Mean (SD)” value [13] was 9.59 (5.07) and the “HSS7 % Change difference … (95% CI)” value [14] was −0.56 %. The “HSS7 % Change from baseline LS Mean (SE)” value [14] was −31.12 (6.01) %, the “HSS7 Postbaseline Mean (SD)” value [14] was 9.63 (5.13) and the “HSS7 Postbaseline Mean (SD)” value (400 mg QPM, Week 5, Omalizumab-Naïve Population with Outlier Removed from Analysis) was 9.63 (5.13). For the same compound, the “HSS7 % Change difference … (95% CI)” value [15] was −7.12 %, the “HSS7 % Change from baseline LS Mean (SE)” value [15] was −31.19 (6.73) % and the “HSS7 Change difference … (95% CI)” value [15] was −0.50 (−3.00, 2.00). For the same compound, the “HSS7 Change from baseline LS Mean (SE)” value [15] was −4.76 (0.93), the “HSS7 Postbaseline Mean (SD)” value [15] was 9.89 (5.69) and the “HSS7 % Change difference … (95% CI)” value [16] was −6.27 %. The “HSS7 % Change from baseline LS Mean (SE)” value [16] was −30.30 (6.90) %, the “HSS7 Postbaseline Mean (SD)” value [16] was 9.94 (5.76) and the “HSS7 Postbaseline Mean (SD)” value (400 mg QPM, Week 6, Omalizumab-Naïve Population with Outlier Removed from Analysis) was 9.94 (5.76). For the same compound, the “HSS7 % Change difference … (95% CI)” value [17] was −5.92 %, the “HSS7 % Change from baseline LS Mean (SE)” value [17] was −29.88 (6.15) % and the “HSS7 Change difference … (95% CI)” value [17] was −0.53 (−2.87, 1.81). The “HSS7 Change from baseline LS Mean (SE)” value [17] was −4.61 (0.88), the “HSS7 Postbaseline Mean (SD)” value [17] was 10.38 (5.19) and the “HSS7 % Change difference … (95% CI)” value [18] was −3.82 %. For the same compound, the “HSS7 % Change from baseline LS Mean (SE)” value [18] was −29.51 (6.35) %, the “HSS7 Postbaseline Mean (SD)” value [18] was 10.43 (5.27) and the “HSS7 Postbaseline Mean (SD)” value (400 mg QPM, Week 7, Omalizumab-Naïve Population with Outlier Removed from Analysis) was 10.43 (5.27). For the same compound, the “HSS7 % Change difference … (95% CI)” value [19] was −1.88 %, the “HSS7 % Change from baseline LS Mean (SE)” value [19] was −30.95 (6.43) % and the “HSS7 Change difference … (95% CI)” value [19] was 0.11 (−2.37, 2.59). The “HSS7 Change from baseline LS Mean (SE)” value [19] was −4.64 (0.93), the “HSS7 Postbaseline Mean (SD)” value [19] was 10.43 (5.63) and the “HSS7 % Change difference … (95% CI)” value [20] was −2.41 %. The “HSS7 % Change from baseline LS Mean (SE)” value [20] was −30.42 (6.75) %, the “HSS7 % Change difference … (95% CI)” value [21] was −10.31 % and the “HSS7 % Change from baseline LS Mean (SE)” value [21] was −34.23 (6.69) %. The “HSS7 Change difference … (95% CI)” value [21] was −0.94 (−3.47, 1.59), the “HSS7 Change from baseline LS Mean (SE)” value [21] was −5.06 (0.95) and the “HSS7 Postbaseline Mean (SD)” value [21] was 9.77 (5.51). For the same compound, the “HSS7 Postbaseline Mean (SD)” value (400 mg QPM, Week 9, Omalizumab-Naïve Population) was 9.82 (5.59) and the “HSS7 Postbaseline Mean (SD)” value (400 mg QPM, Week 9, Omalizumab-Naïve Population with Outlier Removed from Analysis) was 9.82 (5.59).
